In patent publication US20240124483A1, “Methods for the Treatment of Fibrotic Disease” (SHY Therapeutics, LLC, priority 2021, published 2024):

Columns and labels:
[1] = target: Cdc42 (Homo sapiens (Human), UniProt P60953); assay: Cdc42 GTP Binding Domain Inhibition Assay; conditions: read-out: Cdc42: % inh.
Description: (§1) The following method was developed as specific assay for cdc42 and Rheb proteins.
(§2) Buffer-I: • 25 mM Tris-HCl, pH 7.4 • 27 mM KCl • 137 mM NaCl • 1 mM MgCl2 • 1 mM DTT
(§3) Buffer-IL: • 50 mM Tris-HCl, pH 7.0 • 1 mM MgCl2 • 1 mM DTT
(§4) The small GTPases proteins cdc42 and Rheb were expressed as His-tagged proteins. For the assay, the cdc42 and Rheb purified small GTPases proteins were diluted in Buffer-I or Buffer-II to a final concentration of 10-30 μg/mL. 200 μL of each diluted protein was added to a nickel-coated 96-well plate and incubated overnight at […]. Then the protein solution was discarded and 200 μL of Buffer-I or Buffer-II was added to each well in the presence of 1% DMSO. Compounds to be tested were added to the protein-coated wells at final concentration of 20 μM, and incubated for 3 hours at room temperature with and without 10-30 μg/mL of Sos added to the final hour of the incubation. When performing IC50 measurements a serial dilution of all tested concentrations was added. Then Cy3-GTP or Cy5-GTP was added to each well to a final concentration of 100 nM. The labeled GTP was incubated for 45 minutes at room temperature. Following GTP incubation, wells were washed 3× in Buffer-I or Buffer-II and 200 μL of Buffer-I or Buffer-II was added to each well. Following washes, the amount of bound labeled-GTP was measured using a SpectraMax M3 (Molecular Devices).

[2] = target: Rheb (Homo sapiens (Human), UniProt Q15382); assay: Rheb GTP Binding Domain Inhibition Assay; conditions: read-out: Rheb: % inh.
Description: as §1, §2, §3, §4

[3] = test system: JNK; assay: JNK Activation Assay in C2C12 (western blot); type: cell-based, mouse; design: key: Y = yes; N = No; conditions: at 10 μM
Description: (§5) Cell lines: Human tumor-derived pancreatic cancer cell line Panc-1 and mouse muscle myoblast C2C12 were purchased from American Type Culture Collection and grown in complete DMEM-High Glucose, supplemented with penicillin (100 U/mL), streptomycin (100 μg/mL), and 10% heat-inactivated FBS at 37° C. in a humidified incubator with 5% CO2.
Method: Cells were plated at 350000 cells/well density in a 12-well plate, allowed 3 hours to adhere to the plate, then starved in the appropriate medium in the presence of 0.5% FBS overnight. The small molecules to be tested were added to the cells in the final concentration of 10 μM in the presence of 0.3% DMSO for 3 hours incubation at 37° C. For IC50 value determination, serial dilutions of compounds were added to cells under the same conditions. […] Protein concentration was assessed by BCA protein assay (Thermo Scientific). Phosphorylation level of JNK was determined by western blot.
Western blot protocol: Equal amounts of protein (15-50 μg) were separated by SDS-PAGE and transferred to nitrocellulose membranes (Invitrogen by Thermo Fisher Scientific). […] Membranes were blocked with 10% milk and phosphorylation levels of Smad2, Smad3, INK and p38 were assessed by incubating overnight at 4° C. with the following antibody: Phospho-SAPK/JNK (Thr183/Tyr185), from Cell Signaling Technology. […]

[4] = test system: Smad2/3 phosphorylation; assay: Phospho-Smad2/3 Inhibition Assay in C2C12 (western blot); type: cell-based; conditions: Mus musculus; for IC50: C2C12, TGF-b1 stimulated
Description: as §5
Method: Cells were plated at 350000 cells/well density in a 12-well plate, allowed 3 hours to adhere to the plate, then starved in the appropriate medium in the presence of 0.5% FBS overnight. The small molecules to be tested were added to the cells in the final concentration of 10 μM in the presence of 0.3% DMSO for 3 hours incubation at 37° C. For IC50 value determination, serial dilutions of compounds were added to cells under the same conditions. Next, Panc-1 cells were stimulated with 10 ng/ml TGF-b1 for 1 hour, and C2C12 cells were stimulated with 10 ng/ml TGF-b1 for 20 minutes (recombinant human TGF-b1, R&D Systems). After stimulation cells were lysed with lysis buffer containing 1% Triton X-100, EDTA, and Halt™ Protease & Phosphatase Inhibitor Cocktail (Thermo Scientific). Protein concentration was assessed by BCA protein assay (Thermo Scientific). Phosphorylation level of Smad2/Smad3 was determined by western blot.
Western blot protocol: Equal amounts of protein (15-50 μg) were separated by SDS-PAGE and transferred to nitrocellulose membranes (Invitrogen by Thermo Fisher Scientific). The membrane was stained with Ponceau S Stain (Boston BioProducts) to verify uniform protein loading. Membranes were blocked with 10% milk and phosphorylation levels of Smad2/Smad3 were assessed by incubating overnight at 4° C. with the following antibodies: Phospho-Smad2 (Ser465/467) and Phosph-Smad3 (Ser423/425), both from Cell Signaling Technology. Then the membranes were incubated with HRP-conjugated secondary antibody (Jackson Immunoresearch, West Grove, PA). Bands were incubated in Amersham ECL Prime Western Blotting Detection Reagent (GE Healthcare) and visualized using the ChemiDoc MP imaging system (Bio-Rad).

Chain of Cdc42 (P60953 whole entry, species assumed, the tested form may be a part): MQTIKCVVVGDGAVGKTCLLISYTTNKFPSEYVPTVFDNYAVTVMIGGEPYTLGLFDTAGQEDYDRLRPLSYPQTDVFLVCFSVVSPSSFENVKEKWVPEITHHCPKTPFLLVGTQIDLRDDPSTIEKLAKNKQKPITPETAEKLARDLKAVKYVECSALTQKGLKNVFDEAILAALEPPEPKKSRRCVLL
Chain of Rheb (Q15382 whole entry, species assumed, the tested form may be a part): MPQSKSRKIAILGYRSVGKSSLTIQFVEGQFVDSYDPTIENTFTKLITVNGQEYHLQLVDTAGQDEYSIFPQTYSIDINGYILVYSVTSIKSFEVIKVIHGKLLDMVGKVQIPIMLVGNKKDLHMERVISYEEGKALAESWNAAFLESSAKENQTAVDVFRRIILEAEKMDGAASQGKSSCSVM

SMILES	inhibition at 20 µM [1] [%]	inhibition at 20 µM [2] [%]	IC50 [4] [µM]	Activation of JNK in C2C12 [3]	inhibition at 10 µM ([4]; 10 μM, 3 hours, C2C12 stimulated with 10 ng/ml TGF-b1 for 20 minutes, read-out: % inh of Smad2/3 phosphorylation in C2C12) [%]
COCCNc1nc(-c2cn(C)cn2)nc2sc(-c3cccc(OC)c3Cl)c(-c3ccc(OC)cc3)c12 [Compound 8, 6-(2-Chloro-3-methoxyphenyl)-N-(2-methoxyethyl)-5-(4-methoxyphenyl)-2-(1-methyl-1H-imidazol-4-yl)thieno[2,3-d]pyrimidin-4-amine]			1 to 4.99	Y	
COCCNc1nc(-c2nccn2C)nc2sc(-c3cccc(OC)c3Cl)c(-c3ccccc3)c12 [Compound 9, 6-(2-Chloro-3-methoxyphenyl)-N-(2-methoxyethyl)-2-(1-methyl-1H-imidazol-2-yl)-5-phenylthieno[2,3-d]pyrimidin-4-amine]			1 to 4.99	Y	76 to 100
COc1cccc(-c2sc3nc(-c4nccn4C)nc(N[C@H]4C[C@H](OC)C4)c3c2-c2ccccc2)c1F [Compound 40, 6-(2-Fluoro-3-methoxyphenyl)-N-((1r,3r)-3-methoxycyclobutyl)-2-(1-methyl-1H-imidazol-2-yl)-5-phenylthieno[2,3-d]pyrimidin-4-amine]	26 to 45	76 to 100			
COc1nccc(-c2sc3nc(-c4nccn4C)nc(N[C@H]4C[C@H](OC)C4)c3c2-c2ccccc2)c1F [Compound 45, 6-(3-Fluoro-2-methoxypyridin-4-yl)-N-((1r,3r)-3-methoxycyclobutyl)-2-(1-methyl-1H-imidazol-2-yl)-5-phenylthieno[2,3-d]pyrimidin-4-amine]	46 to 75	76 to 100			

Further lines, with some results ahead:

inhibition at 20 µM [1] [%]	inhibition at 20 µM [2] [%]	IC50 [4] [µM]	SMILES	Activation of JNK in C2C12 [3]	inhibition at 10 µM ([4]; 10 μM, 3 hours, C2C12 stimulated with 10 ng/ml TGF-b1 for 20 minutes, read-out: % inh of Smad2/3 phosphorylation in C2C12) [%]
1 to 25	26 to 45		COc1cc(-c2sc3nc(-c4nccn4C)nc(N[C@@H]4CC[C@H](OC)C4)c3c2-c2ccccc2)ccn1 (racemic) [Compound 44, rac-N-((1R,3S)-3-Methoxycyclopentyl)-6-(2-methoxypyridin-4-yl)-2-(1-methyl-1H-imidazol-2-yl)-5-phenylthieno[2,3-d]pyrimidin-4-amine]		
46 to 75	76 to 100		COc1cc(-c2sc3nc(-c4nccn4C)nc(N[C@@H]4CC[C@@H](OC)C4)c3c2-c2ccccc2)ccn1 (racemic) [Compound 47, N-((1R,3R)-3-Methoxycyclopentyl)-6-(2-methoxypyridin-4-yl)-2-(1-methyl-1H-imidazol-2-yl)-5-phenylthieno[2,3-d]pyrimidin-4-amine]		
		5 to 10	COc1cccc(Nc2nc(-c3nccn3C)nc3sc(-c4ccn(C(C)C)n4)c(C)c23)c1 [Compound 17, 6-(1-Isopropyl-1H-pyrazol-3-yl)-N-(3-methoxyphenyl)-5-methyl-2-(1-methyl-1H-imidazol-2-yl)thieno[2,3-d]pyrimidin-4-amine]		
		5 to 10	COc1cccc(Nc2nc(-c3nccn3C)nc3sc(-c4ccn(C(C)C)n4)c(C)c23)n1 [Compound 18, 6-(1-Isopropyl-1H-pyrazol-3-yl)-N-(6-methoxypyridin-2-yl)-5-methyl-2-(1-methyl-1H-imidazol-2-yl)thieno[2,3-d]pyrimidin-4-amine]		
		> 10	COc1cc(Nc2nc(-c3nccn3C)nc3sc(-c4ccn(C(C)C)n4)c(C)c23)ncn1 [Compound 19, 6-(1-Isopropyl-1H-pyrazol-3-yl)-N-(6-methoxypyrimidin-4-yl)-5-methyl-2-(1-methyl-1H-imidazol-2-yl)thieno[2,3-d]pyrimidin-4-amine]		
46 to 75	76 to 100		COc1cc(-c2sc3nc(-c4nccn4C)nc(N[C@H]4C[C@H](OC)C4)c3c2-c2ccccc2)ccn1 [Compound 46, N-((1r,3r)-3-Methoxycyclobutyl)-6-(2-methoxypyridin-4-yl)-2-(1-methyl-1H-imidazol-2-yl)-5-phenylthieno[2,3-d]pyrimidin-4-amine]		
